Converted amounts (≈) assume the structure as drawn. Where two headings read alike, the source gives them in different places. Numbered stars: 1 amine (or outer) side, 2 acyl side, 3 side chain; on linkers, the order of the positions; unused ones are H or OH. Bridge positions count the residues as written; N and C are the ends. Square brackets hold non-standard residues; d marks the D form. Peptide text beside a SMILES is read from it. * marks the point of attachment. Piperazine(2S-CO,4-Me) = CN1CCN[C@H](C(=O)O)C1; Phe(3,5-F2) = N[C@@H](Cc1cc(F)cc(F)c1)C(=O)O; NH(1-Me-indolin-5-yl) = CN1CCc2cc(N*)ccc21; Morpholine(3S-CO) = O=C(O)[C@@H]1COCCN1; Phe(3-Me) = Cc1cccc(C[C@H](N)C(=O)O)c1; Pro(4S-Me) = C[C@@H]1CN[C@H](C(=O)O)C1; NH(4-Cl-2-F-phenyl) = Fc1cc(Cl)ccc1N*; Pro(4R-Me) = C[C@H]1CN[C@H](C(=O)O)C1; Propanoyl(3-NMe2) = CN(C)CCC(=O)*; X1 = O=C([C@@H]1CSCCN1[*:1])[*:2]; Hyp = O=C(O)[C@@H]1C[C@@H](O)CN1; NH(4-Me-phenyl) = Cc1ccc(N*)cc1; aThr = C[C@H](O)[C@H](N)C(=O)O; Pip = O=C(O)[C@@H]1CCCCN1; 4Abz = Nc1ccc(C(=O)O)cc1; CO = O=C([*:1])[*:2]
Key:
S. aureus ΔClpP = experiment: Minimal inhibitory concentration, microbroth dilution; format: cell-based, Staphylococcus aureus; settings: MIC; ClpP inactivated
Procedure, shortened: (§1)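 Susceptibility testing used the CLSI dilution standard, with bacteria at ~10^5 cfu/mL exposed to a two-fold compound series beginning at 200 μM final. The endpoint is the lowest concentration showing no growth after overnight incubation (37 °C, aerobic).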

MRSA NRS70 = experiment: as above; format: cell-based; settings: Staphylococcus aureus
Procedure, shortened: as §1

S. aureus USA 300 = experiment: as above; format: cell-based; settings: Staphylococcus aureus
Procedure, shortened: as §1

[1] = Plasma protein binding, rapid equilibrium dialysis; format: in vitro ADME, mouse
Experimental: This assay determines plasma protein binding of a drug/compound and free drug concentration in plasma using rapid equilibrium dialysis, which allow the aqueous component of plasma containing the free drug/compound through a dialysis membrane (MWCO˜8,000).
Solutions were prepared at 10 mM in DMSO. Dulbecco's phosphate buffered saline (DPBS; pH 7.4) was obtained from Invitrogen (Carlsbad, Calif.). Single-Use RED (rapid equilibrium dialysis) device was obtained from Thermo scientific (Rockford, Ill.). Human plasma was obtained from Innovative Research INC (Novi, Michigan, Ill).
Sample preparation for plasma protein binding was modified from Waters' method. (Waters et al. (2008) J. Pharm. Sci. 97(10): 4586-95). The Teflon base plate with the RED inserts (MWCO 8 K) were allowed to use without any pre-condition the membrane inserts. Human plasma was thawed and centrifuged at 1000 rpm for 2 min to remove any particulates. Each compound was prepared at 10 μM in human plasma. This was done by adding 1 μL, of drug solution (10 mM in DMSO) to 1000 μL, of human plasma (0.1% DMSO). Spiked plasma solutions (300 μL) were placed into the sample chamber (indicated by the red ring) and 500 μL, of DPBS into the adjacent chamber. The plate was sealed and incubated at 37° C. on an orbital shaker (100 rpm) for 4 hours. After incubation, the seal was removed from the RED plate and the volume of the insert confirmed—little to no volume change occurred. Aliquots (50 μL) were removed from each side of the insert and dispensed into a 96-well deep plate. An equal volume of blank plasma or DPBS was added to the required wells to create analytically identical sample matrices (matrix matching). To each sample 200 μL, of ACN containing 4 μg/mL warfarin IS was added. All of the plates were sealed and mixed well at 600 rpm for 10 min and were centrifuged at 4000 rpm for 20 min. The supernatants (120 μL) were transferred to analytical plates for analysis by LCMS. Conditions for Waters ACQUITY-UPLC-MS-UV system were described separately. The test compound concentrations were quantified in both buffer and plasma chambers via peak areas relative to the internal standard. The percentage of the test compound bound to plasma was calculated on following equations: % Free=(Concentration buffer chamber/concentration plasma chamber)×100% and % Bound=100%-% Free.

[2] = read-out: Minimal Inhibitory Concentrations (μM) MRSA NRS70, MIC
[3] = USA300, read-out: Minimal Inhibitory Concentrations (μM) S. aureus USA 300, MIC
[4] = MIC, read-out: Minimal Inhibitory Concentrations (μM) MRSA NRS70
[5] = USA300, MIC, read-out: Minimal Inhibitory Concentrations (μM) S. aureus USA 300
[6] = plasma binding, % Bound, mouse plasma

Row | SMILES | Minimal Inhibitory Concentrations (μM) S. aureus ΔClpP (S. aureus ΔClpP) | MIC (MRSA NRS70; [2]) | MIC (S. aureus USA 300; [3]) | MIC (MRSA NRS70; [4]) | MIC (S. aureus USA 300; [5]) | Mouse ([1]; mouse, 4 h, 10 μM, pH 7.4) | Mouse [1, 6]
1 | CCOC(=O)c1ccc(NC(=O)N[C@@H](Cc2cccc(C)c2)C(=O)N[C@@H]2C(=O)N3C[C@H](O)C[C@H]3C(=O)N3CCCC[C@H]3C(=O)N[C@@H](C)C(=O)N3C[C@H](C)C[C@H]3C(=O)O[C@H]2C)cc1 [Compound 36, ETHYL 4-(3-((S)-1-(((2R,6S,8AS,14AS,16R,20S,21S,23AS)-16-HYDROXY-2,6,21-TRIMETHYL-5,8,14,19,23-PENTAOXOOCTADECAHYDRO-1H,5H,14H,19H-PYRIDO[2,1-I]DIPYRROLO[2,1-C:2′,1′-L][1]OXA[4,7,10,13]TETRAAZACYCLOHEXADECIN-20-YL)AMINO)-1-OXO-3-(M-TOLYL)PROPAN-2-YL)UREIDO)BENZOATE] ({OEt-4Abz-CO}-[Phe(3-Me)][aThr][Hyp][Pip]A[Pro(4R-Me)]; ester 2-C) | >20 µM | 2.5 µM (≈ 2.15 µg/mL) | 2.5 µM (≈ 2.15 µg/mL) | – | – | – | –
2 | Cc1cccc(C[C@H](NC(=O)Nc2ccc(Cl)cc2F)C(=O)N[C@@H]2C(=O)N3C[C@H](O)C[C@H]3C(=O)N3CCSC[C@H]3C(=O)N[C@@H](C)C(=O)N3C[C@H](C)C[C@H]3C(=O)O[C@H]2C)c1 [Compound 41, (S)-2-(3-(4-CHLORO-2-FLUOROPHENYL)UREIDO)-N-((6AS,8R,12S,13S,15AS,17R,21S,23AR)-8-HYDROXY-13,17,21-TRIMETHYL-6,11,15,20,23-PENTAOXOOCTADECAHYDRO-6H,11H,15H-DIPYRROLO[2,1-C:2′,1′-L][1,4]THIAZINO[3,4-I][1]OXA[4,7,10,13]TETRAAZACYCLOHEXADECIN-12-YL)-3-(M-TOLYL)PROPANAMIDE] ({NH(4-Cl-2-F-phenyl)-CO}-[Phe(3-Me)][aThr][Hyp][X1]A[Pro(4R-Me)]; ester 2-C) | >20 µM | – | – | 0.156 µM (≈ 0.134 µg/mL) | 0.31 µM (≈ 0.266 µg/mL) | 99.9 ± 9.9% | –
3 | Cc1cccc(C[C@H](NC(=O)Nc2ccc(Cl)cc2F)C(=O)N[C@@H]2C(=O)N3C[C@H](OC(=O)CCN(C)C)C[C@H]3C(=O)N3CCCC[C@H]3C(=O)N[C@@H](C)C(=O)N3C[C@H](C)C[C@H]3C(=O)O[C@H]2C)c1 [Compound 46, (2R,6S,8AS,14AS,16R,20S,21S,23AS)-20-((S)-2-(3-(4-CHLORO-2-FLUOROPHENYL)UREIDO)-3-(M-TOLYL)PROPANAMIDO)-2,6,21-TRIMETHYL-5,8,14,19,23-PENTAOXOOCTADECAHYDRO-1H,5H,14H,19H-PYRIDO[2,1-I]DIPYRROLO[2,1-C:2′,1′-L][1]OXA[4,7,10,13]TETRAAZACYCLOHEXADECIN-16-YL 3-(DIMETHYLAMINO)PROPANOATE] ({NH(4-Cl-2-F-phenyl)-CO}-[Phe(3-Me)][aThr][Hyp](Propanoyl(3-NMe2))[Pip]A[Pro(4R-Me)]; ester 2-C) | >20 µM | – | – | 0.313 µM (≈ 0.294 µg/mL) | 0.313 µM (≈ 0.294 µg/mL) | 93.0 ± 0.8% | –
4 | Cc1cccc(C[C@H](NC(=O)Nc2ccc(Cl)cc2F)C(=O)N[C@@H]2C(=O)N3CCC[C@H]3C(=O)N3CCSC[C@H]3C(=O)N[C@@H](C)C(=O)N3C[C@H](C)C[C@H]3C(=O)O[C@H]2C)c1 [Compound 38, (S)-2-(3-(4-CHLORO-2-FLUOROPHENYL)UREIDO)-3-(M-TOLYL)-N-((6AS,12S,13S,15AS,17R,21S,23AR)-13,17,21-TRIMETHYL-6,11,15,20,23-PENTAOXOOCTADECAHYDRO-6H,11H,15H-DIPYRROLO[2,1-C:2′,1′-L][1,4]THIAZINO[3,4-I][1]OXA[4,7,10,13]TETRAAZACYCLOHEXADECIN-12-YL)PROPANAMIDE] ({NH(4-Cl-2-F-phenyl)-CO}-[Phe(3-Me)][aThr]P[X1]A[Pro(4R-Me)]; ester 2-C) | >20 µM | – | – | 0.039 µM (≈ 0.0329 µg/mL) | 0.078 µM (≈ 0.0657 µg/mL) | 96.0 ± 6.0% | –
5 | Cc1ccc(NC(=O)N[C@@H](Cc2cccc(C)c2)C(=O)N[C@@H]2C(=O)N3C[C@H](O)C[C@H]3C(=O)N3CCSC[C@H]3C(=O)N[C@@H](C)C(=O)N3C[C@H](C)C[C@H]3C(=O)O[C@H]2C)cc1 [Compound 42, (S)—N-((6AS,8R,12S,13S,15AS,17R,21S,23AR)-8-HYDROXY-13,17,21-TRIMETHYL-6,11,15,20,23-PENTAOXOOCTADECAHYDRO-6H,11H,15H-DIPYRROLO[2,1-C:2′,1′-L][1,4]THIAZINO[3,4-I][1]OXA[4,7,10,13]TETRAAZACYCLOHEXADECIN-12-YL)-3-(M-TOLYL)-2-(3-(P-TOLYL)UREIDO)PROPANAMIDE] ({NH(4-Me-phenyl)-CO}-[Phe(3-Me)][aThr][Hyp][X1]A[Pro(4R-Me)]; ester 2-C) | >20 µM | 1.25 µM (≈ 1.02 µg/mL) | 2.5 µM (≈ 2.05 µg/mL) | – | – | – | 97.4 ± 7.4%
6 | C[C@@H]1C[C@H]2C(=O)O[C@@H](C)[C@H](NC(=O)[C@H](Cc3cc(F)cc(F)c3)NC(=O)Nc3ccc4c(c3)CCN4C)C(=O)N3CCC[C@H]3C(=O)N3CCOC[C@H]3C(=O)N[C@@H](C)C(=O)N2C1 [Compound 32] ({NH(1-Me-indolin-5-yl)-CO}-[Phe(3,5-F2)][aThr]P[Morpholine(3S-CO)]A[Pro(4R-Me)]; ester 2-C) | >20 µM | 0.078 µM (≈ 0.0664 µg/mL) | 0.156 µM (≈ 0.133 µg/mL) | – | – | – | 91.5 ± 1.5%
7 | C[C@@H]1C[C@H]2C(=O)OC[C@H](NC(=O)[C@H](Cc3cc(F)cc(F)c3)NC(=O)Nc3ccc(Cl)cc3F)C(=O)N3CCC[C@H]3C(=O)N3CCN(C)C[C@H]3C(=O)N[C@@H](C)C(=O)N2C1 [Compound 34] ({NH(4-Cl-2-F-phenyl)-CO}-[Phe(3,5-F2)]SP[Piperazine(2S-CO,4-Me)]A[Pro(4R-Me)]; ester 2-C) | >20 µM | – | – | 0.078 µM (≈ 0.0661 µg/mL) | 0.156 µM (≈ 0.132 µg/mL) | 97.5 ± 7.5% | –
8 | Cc1ccc(NC(=O)N[C@@H](Cc2cccc(C)c2)C(=O)N[C@H]2COC(=O)[C@@H]3CCCN3C(=O)[C@H](C)NC(=O)[C@@H]3CCCCN3C(=O)[C@@H]3C[C@@H](O)CN3C2=O)cc1 [Compound 49, (S)—N-((6S,8AS,14AS,16R,20S,23AS)-16-HYDROXY-6-METHYL-5,8,14,19,23-PENTAOXOOCTADECAHYDRO-1H,5H,14H,19H-PYRIDO[2,1-I]DIPYRROLO[2,1-C:2′,1′-L][1]OXA[4,7,10,13]TETRAAZACYCLOHEXADECIN-20-YL)-3-(M-TOLYL)-2-(3-(P-TOLYL)UREIDO)PROPANAMIDE] | >20 µM | – | – | – | – | – | 99.4 ± 9.4%
9 | Cc1ccc(NC(=O)N[C@@H](Cc2cccc(C)c2)C(=O)N[C@@H]2C(=O)N3CCC[C@H]3C(=O)N3CCCC[C@H]3C(=O)N[C@@H](C)C(=O)N3C[C@@H](C)C[C@H]3C(=O)O[C@H]2C)cc1 [Compound 45, (S)-3-(M-TOLYL)-2-(3-(P-TOLYL)UREIDO)-N-((2S,6S,8AS,14AS,20S,21S,23AS)-2,6,21-TRIMETHYL-5,8,14,19,23-PENTAOXOOCTADECAHYDRO-1H,5H,14H,19H-PYRIDO[2,1-I]DIPYRROLO[2,1-C:2′,1′-L][1]OXA[4,7,10,13]TETRAAZACYCLOHEXADECIN-20-YL)PROPANAMIDE] ({NH(4-Me-phenyl)-CO}-[Phe(3-Me)][aThr]P[Pip]A[Pro(4S-Me)]; ester 2-C) | >20 µM | 1.25 µM (≈ 0.982 µg/mL) | 10 µM (≈ 7.86 µg/mL) | – | – | – | 92.1 ± 1.3%
